Where two headings read alike, the source gives them in different places.
Legend:
[1] = tested on: db/db mice; conditions: Zhang et al., 2019; cited from earlier work
[2] = tested on: ob/ob mice; test: Ob/Ob diabetes mouse model: blood glucose, body weight, Langerhans islets; assay type: in vivo; conditions: 14 mg/kg intravenous three times a week
Experimental: Six week old male (C57BL/6) Ob/Ob (Jackson Laboratory, Bar Harbor, Me.) mice were treated with R-Tf-D-LP4 (14 mg/Kg) from week 6 to week 13 by intravenous administration of the R-Tf-D-LP4 peptide in 100 μl of Hank's balanced salts solution (HBSS) without calcium three times a week. A control group received 100 μl of 0.8% DMSO in HBSS buffer injected intravenously. The final blood DMSO concentration was 0.07% in both control and peptide-treated mice. Blood glucose levels were measured once a week. At the end of the experiment, the mice were sacrificed, and the pancreas was removed and fixed with formaldehyde, embedded in paraffin, sectioned, and subjected to immunefluorescent (IF). The experimental protocol used in the mouse model was approved by the Institutional Animal Care and Use Committee.
(§1) Immunohistochemistry (IHC) and immunofluorescence (IF) staining was performed on 5 μm-thick formalin-fixed and paraffin-embedded pancreatic tissue sections. Sections were deparaffinized (5 minutes in xylene, 3 times), followed by rehydration with a graded ethanol series (50%, 70%, 95%, 100%). Antigen retrieval was performed by 20 min incubation in preheated 0.01 M citrate buffer, pH 6.0 at 95-98° C. Sections were washed with PBS pH 7.4 containing 0.1% Triton-X100 (PBST), incubated in 10% NGS and 1% BSA for 2 h, followed by overnight incubation at 4° C. with primary antibodies (see Table 1). Sections were then washed with PBST. For IHC staining, endogenous peroxidase activity was blocked by incubating the sections in 3% H2O2 for 15 min. Following washing with PBST, sections were incubated for 2 h with the appropriate secondary HRP-conjugated antibodies. Sections were washed with PBST and peroxidase activity was visualized by incubating with DAB. After rinsing in water, the sections were counter-stained with hematoxylin, dehydrated with a graded ethanol series (50-100%), incubated in xylene, and mounted with mounting medium. Finally, images from the sections were collected using an automatic digital slide scanner (Panoramic
(§2) MIDI II, 3DHISTECH) with the same light intensity and exposure time. Non-specific control experiments were carried out using the same protocols but omitting incubation with primary antibodies. For IF staining, sections were incubated for 2 h with the appropriate secondary Alexa Fluor conjugated antibodies. Sections were washed with PBST, counter—stained with DAPI (0.07 μg/ml), washed with PBST, and mounted with mounting media. […]
STZ/HFD-32-fed mice at the end of study before sacrifice. In the case of the ob/ob mice, weekly blood samples were collected from the tail, and blood glucose levels were measured immediately using an Accu-Check Performa blood glucose meter.

[3] = tested on: 3T3-L1 adipocytes; test: Oil Red O staining of intracellular lipids in adipocytes; assay type: cell-based, mouse; conditions: 10 μM peptide, 24 h
Experimental: 3T3-L1 mouse embryo fibroblasts were purchased from the American Type Culture Collection (ATCC Manassas, Va.) and maintained in a humidified atmosphere of 5% CO2, 95% air at 37° C. in Dulbecco's modified Eagle's growth medium (DMEM) with high glucose ([…]), supplemented with 10% fetal calf serum, and 1% penicillin-streptomycin. For R-Tf-D-LP4 peptide treatment, […] cells (6×10^5/ml at 70-80% confluence) were incubated with the R-Tf-D-LP4 peptide in 500 μl serum-free medium for 24 h at 37° C. and 5% CO2. The cells were then stained with Oil red O as described below.
3T3-L1 cells were washed with PBS, fixed with formaldehyde for 15 min, and then subjected to Oil Red O staining for 30 min at room temperature followed by staining with Hematoxylin. Microscope images were collected to visualize the red oil droplets in the cells. Finally, the cells were washed with H2O followed by three washes with 60% isopropanol with gentle rocking. The Oil Red O stain was extracted with 100% isopropanol for 5 min and the absorbance at 492 nm was measured and normalized to the same number of cells counted before stain extraction.

[4] = tested on: STZ/HFD-32-fed mice; test: NAFLD/diabetes mice model (STZ/HFD-32-fed mice): number and size of Langerhans islets, blood glucose; assay type: in vivo, mouse; conditions: for Average No. of islets per mouse / Total No. of islets: 14 mg/kg i.v. three times a week
Text: The HFD-32 diet was as described previously (Fujii, M., et al. Med Mol Morphol, 2013. 46(3): p. 141-52; 507.6 kcal/100 g, 56.7% kcal from fat) comprising 5% egg white powder (MM Ingredients, Wimborne, UK), 6.928% lactose (Pharma Grade, Nelson, UK), 15.88% beef fat (contains 80% fat), 5% AIN93G-mineral mixture, 0.002% tertiary butyl hydroquinone and 1.4% AIN93VX-vitamin mix (MP Biomedical, Illkirch, France), 24.5% milk casein (Shaanxi Fuheng Biotechnology, Xi'an, China), 20% safflower oil (high oleic acid content) (Bustan Briut, Galil, Israel), 6.45% sucrose, 0.43% L-cysteine, 5.5% crystalline cellulose (Sigma), 0.36% choline bitartrate and 8.25% maltodextrin (Bulk Powders, Colchester, UK). Control C57BL/6 mice were fed with a standard chow diet (408.4 kcal/100 g, 57% kcal from carbohydrates, 27% kcal from proteins, 16% from fat (V1154-703, S sniff Spezialdaten, Sosset, Germany).
(§3) Male C57BL/6 mice were purchased from Envigo (Jerusalem, Israel). In order to generate the diabetes-based steatosis-NASH mouse model, 2-day-old mice were subjected to a single, low dose subcutaneous injection of streptozotocin (STZ) (200 μg/mouse) and then were fed with the HFD-32 high fat diet starting at the end of week 4. The mice manifested steatosis at 6 weeks and NASH at 8 weeks. These mice are designated herein interchangeably as “NAFLD/diabetes mice model” and “STZ/HFD-32-fed mice”. Mice affected with steatosis were treated with R-Tf-D-LP4 (14 mg/kg) from week 6 to week 8, and mice affected with NASH from week 8 to week 10. The R-Tf-D-LP4 peptide at 14 mg/kg (in 100 μl of Hank's balanced salts solution (HBSS) without calcium) was administered intravenously three times a week. Control groups were intravenously injected with 100 μl of 0.8% DMSO in HBSS buffer from week 6 to week 8 for steatosis affected mice and from week 8 to week […] for NASH affected mice. The final blood DMSO concentration was 0.07% in control and peptide-treated mice.
At the end of the experiment, the mice were sacrificed by CO2 inhalation and the livers and pancreases were removed. Livers were photographed and the lipid content was assessed. For this purpose, part of the liver was frozen in OCT (optimal cutting temperature) compound, embedded, sectioned, and stained with oil red O. The pancreases were fixed with formaldehyde, embedded in paraffin, sectioned, and subjected to immunohistochemical (IHC) or immunefluorescent (IF) staining, as described below.
as §1
as §2, with “antibodies.” for “antibodies. Sections were washed with PBST, counter—stained with DAPI (0.07 μg/ml), washed with PBST, and mounted with mounting media.”

[5] = tested on: Langerhans islets; test: Glucagon IHC staining of Langerhans islets (islet morphology) in STZ/HFD-32-fed mice; assay type: in vivo, mouse
Experimental: as §3
(§4) At the end of the experiment, the mice were sacrificed by CO2 inhalation and the livers and pancreases were removed. Livers were photographed and the lipid content was assessed. […]

[6] = tested on: Glut-2; test: Glut-2 IF staining of pancreatic sections of STZ/HFD-32-fed mice; assay type: in vivo, mouse; conditions: STZ/HFD-32-fed mice at steatosis
Experimental: as §3, §4

[7] = tested on: VDAC1; test: VDAC1 IHC/IF staining of Langerhans islets of STZ/HFD-32-fed mice; assay type: in vivo, mouse
Experimental: Male C57BL/6 mice were purchased from Envigo (Jerusalem, Israel). In order to generate the diabetes-based steatosis-NASH mouse model, 2-day-old mice were subjected to a single, low dose subcutaneous injection of streptozotocin (STZ) (200 μg/mouse) and then were fed with the HFD-32 high fat diet starting at the end of week 4. The mice manifested steatosis at 6 weeks and NASH at 8 weeks. These mice are designated herein interchangeably as “NAFLD/diabetes mice model” and “STZ/HFD-32-fed mice”. Mice affected with steatosis were treated with R-Tf-D-LP4 (14 mg/kg) from week 6 to week 8, and mice affected with NASH from week 8 to week 10. The R-Tf-D-LP4 peptide at 14 mg/kg (in 100 μl of Hank's balanced salts solution (HBSS) without calcium) was administered intravenously three times a week. […]
as §4
The expression of VDAC1 was examined in the pancreas of STZ/HFD-32 diet-fed mice, representing NAFLD affected mice on a diabetic background with and without R-Tf-D-LP4 peptide treatment as compared to the levels in islets from mice fed with chow-diet (FIG. 5). Formaldehyde-fixed, paraffin-embedded pancreas sections were analyzed by IHC staining for VDAC1 using anti-VDAC1 specific antibodies. […]

[8] = tested on: Ki-67; test: Ki-67 IF staining (proliferation) in pancreas of STZ/HFD-32-fed mice; assay type: in vivo, mouse; conditions: steatosis stage; compared to chow diet-fed and STZ/HFD-32-fed mice
Experimental: as §3, §4

[9] = tested on: PDX1; test: PDX1 IF co-staining in pancreas of STZ/HFD-32-fed mice; assay type: in vivo, mouse
Experimental: as §3, §4

[10] = tested on: ob/ob mice; conditions: diabetic (ob/ob) mice and NAFLD affected mice; Pittala et al., Cells 2020; cited from earlier work
[11] = tested on: STZ/HFD-32-fed mice; conditions: 2019, cited from earlier work

Compound: O=C(CC(CO)N1CCN(c2ccc(OC(F)(F)F)cc2)CC1)Nc1ccc(Cl)cc1 (stereo not drawn) [VBIT-4, N-(4-chlorophenyl)-4-hydroxy-3-(4-(4-(trifluoromethoxy)phenyl)piperazin-l-yl) butanamide]
- glucose tolerance [1]: maintained normal glucose tolerance
- hyperglycemia [1]: prevented hyperglycemia
- insulin secretion [1]: stimulated insulin secretion

Compound: D-Lys-D-Trp-D-Thr-D-Trp-D-Lys-D-Asn-D-Ser-D-Asn-D-Gly-D-Ala-D-Thr-D-Trp-D-Ala-D-Leu-D-Asn-D-Val-D-Ala-D-Thr-D-Glu-D-Leu-D-Lys-D-Lys-D-Glu-D-Trp-D-Thr-D-Trp-D-Ser-His-Arg-Pro-Tyr-Ile-Ala-His [R-Tf-D-LP4]
- blood glucose levels [2]: reduced the levels of blood glucose
- insulin production [2]: improved insulin production
- number of Langerhans islets ([2]; H&E and anti-insulin staining): increased the number of islets
- body weight (weekly average weight) ([2]; followed for 7 weeks): no such effect was observed
- decrease in the amount of lipid (extraction of Oil red O stain) [3]: 90%
- number of islets per mouse, Islet size, 1-50 nm ([4]; NASH): 16
- number of islets per mouse, Islet size, 51-100 nm ([4]; NASH): 12
- number of islets per mouse, Islet size, 101-150 nm ([4]; NASH): 4
- number of islets per mouse, Islet size, 151-300 nm ([4]; NASH): 3
- Average No. of islets per mouse ([4]; NASH, week 8 to 10): 35
- Total No. of islets ([4]; NASH, week 8 to 10, n = 10): 354 (n = 10)
- size and number of Langerhans islets ([4]; STZ/HFD-32-fed mice, steatosis or NASH stage): both the size and the number of Langerhans islets were increased
- blood glucose levels ([4]; STZ/HFD-32 mice model): reduced blood glucose levels
- insulin content within the islets ([4]; STZ/HFD-32 mice model): increased insulin content within the islets
- number of islets per mouse, Islet size, 1-50 nm ([4]; Steatosis): 16
- number of islets per mouse, Islet size, 51-100 nm ([4]; Steatosis): 8
- number of islets per mouse, Islet size, 101-150 nm ([4]; Steatosis): 2
- number of islets per mouse, Islet size, 151-300 nm ([4]; Steatosis): 1
- Average No. of islets per mouse ([4]; Steatosis, week 6 to 8): 27
- Total No. of islets ([4]; Steatosis, week 6 to 8, n = 17): 451 (n = 17)
- further increase of the number of islets over chow diet level ([4]; mice affected with NASH): 30%
- number of the islets compared with chow diet-fed mice ([4]; mice with steatosis): to the level observed in mice fed with chow diet
- islet morphology (localization of glucagon-producing cells) ([5]; NASH stage): completely restored
- islet morphology (localization of glucagon-producing cells) ([5]; steatosis stage): improved to some extent
- Glut-2 expression in islets [6]: re-expressed
- VDAC1 staining level in the islets ([7]; IHC, 14 mg/kg): this level decreased
- islet morphology and size (IF co-staining VDAC1 and insulin) ([7]; steatosis stage): displayed a normal morphology and large islets
- increase in number of Ki-67 positive cells in the islet interior [8]: about 8 fold
- increase in number of Ki-67 positive cells outside of the islets [8]: ~3 fold
- PDX1 staining level ([9]; co-staining PDX1 and glucagon, over the level in control chow-fed mice): highly increased
- PDX1 staining level ([9]; co-staining PDX1 and insulin): showed a higher level of staining for PDX1
- blood glucose levels [10]: reduced blood glucose levels
- β-oxidation in the liver ([11]; STZ/HFD-32-fed mice, Pittala et al.): accelerated β-oxidation in the liver
- liver pathology ([11]; mouse model for NAFLD, WO 2017/037711, Pittala et al.): reverse liver pathology to a normal-like state

Reference: patent US20230066049A1, “PEPTIDES USEFUL IN PRESERVATION AND/OR RESTORATION OF FUNCTIONAL PANCREATIC ISLETS AND IN TREATING DIABETES” (THE NATIONAL INSTITUTE FOR BIOTECHNOLOGY IN THE NEGEV LTD., priority 2020, published 2023)
